Data: ChEMBL document CHEMBL5528053, “Discovery of Novel Isoquinoline Analogues as Dual Tubulin Polymerization/V-ATPase Inhibitors with Immunogenic Cell Death Induction” (J Med Chem, 2024)
Calls of active or inactive are those of the source. The rule behind the calls is not given here.

Tests used:
PC-3 [1] = assay: Induction of immunogenic cell death in human PC-3 cells assessed as decrease in HMGB1 content in tumor cells at 50 to 200 nM; assay type: functional, cell-based; conditions: dose 50-200 nM
PC-3 [2] = assay: Induction of cell cycle arrest in human PC-3 cells assessed as reduction in cdc25c phosphorylation at ser216 residue at 50 to 200 nM incubated for 24 hrs by DAPI staining based analysis; assay type: functional; conditions: dose 50-200 nM
[3] = Antitumor immunity against mouse RM1 cells homografted in C57BL/6 mouse model assessed as increase in tumor infiltrating CD3+CD8+T cells (CTLs) at 5 mg/kg, iv administered every two days for 14 days by flow cytometry analysis (reference value: 0.89%); assay type: functional; conditions: time 14 day
[4] = Antitumor immunity against mouse RM1 cells homografted in C57BL/6 mouse model assessed as increase in tumor infiltrating CD3+CD8+T cells (CTLs) at 10 mg/kg, iv administered every two days for 14 days by flow cytometry analysis (reference value: 0.89%); assay type: functional; conditions: time 14 day
[5] = Toxicity in ICR mouse assessed as effect on CK level at 10 mg/kg, ip measured for 14 days; assay type: organism-based; conditions: in vivo, 336 h, time 14 day
[6] = Antitumor immunity against mouse RM1 cells homografted in C57BL/6 mouse model assessed as increase in tumor infiltrating lymphocytes at 10 mg/kg, iv administered every two days for 14 days by flow cytometry analysis (reference value: 5.26%); assay type: functional; conditions: time 14 day
[7] = Toxicity in ICR mouse assessed as effect on LDH level at 10 mg/kg, ip measured for 14 days; assay type: organism-based; conditions: in vivo, 336 h, time 14 day
PC-3 [8] = assay: Induction of apoptosis in human PC-3 cells assessed as late apoptotic cells at 100 nM measured after 24 hrs by annexin V-FITC and PI staining based flow cytometry analysis (reference value: 2.37%); assay type: functional
[9] = Antitumor activity against mouse RM1 cells homografted in C57BL/6 mouse model assessed as tumor growth inhibition at 5 mg/kg, iv administered every two days for 14 days by vernier caliper based analysis relative to control; assay type: functional; conditions: RM1, 336 h, time 14 day, read-out: TGI
PC-3 [10] = assay: Induction of apoptosis in human PC-3 cells assessed as late apoptotic cells at 200 nM measured after 24 hrs by annexin V-FITC and PI staining based flow cytometry analysis (reference value: 2.37%); assay type: functional
[11] = Toxicity in ICR mouse assessed as effect on ALT level at 10 mg/kg, ip measured for 14 days; assay type: organism-based; conditions: in vivo, 336 h, time 14 day
[12] = Antitumor activity against mouse RM1 cells xenografted in immunocompetent […] mouse model assessed as tumor growth inhibition at 10 mg/kg, iv measured every two days for 14 days relative to control; assay type: functional; conditions: RM1, 336 h, time 14 day, read-out: TGI
PC-3 [13] = assay: Induction of cell cycle arrest in human PC-3 cells assessed as increase in histone H3at Ser10 residues at 50 to 200 nM incubated for 24 hrs by DAPI staining based analysis; assay type: functional; conditions: dose 50-200 nM
[14] = Toxicity in ICR mouse assessed as effect on heart at 10 mg/kg, ip measured for 14 days by H and E staining based analysis; assay type: organism-based; conditions: in vivo, 336 h, time 14 day
[15] = Antitumor activity against mouse RM1 cells xenografted in immunocompetent […] mouse model assessed as tumor growth inhibition at 5 mg/kg, iv measured every two days for 14 days relative to control; assay type: functional; conditions: RM1, 336 h, time 14 day, read-out: TGI
PC-3 [16] = assay: Induction of endoplasmic reticulum (ER) stress in human PC-3 cells assessed as upregulation of eIF2 alpha phosphorylation at […] residues at 50 to 200 nM measured after 24 hrs by Western blot analysis; assay type: functional, cell-based; conditions: dose 50-200 nM
PC-3 [17] = assay: Inhibition of V-ATPase activity in human PC-3 cells at 400 nM measured after 24 hrs by colorimetric assay relative to control; assay type: cell-based
[18] = Binding affinity to porcine brain tubulin polymerization assessed as dissociation constant measured after 20 mins by fluorescence based analysis; assay type: tissue-based, Sus scrofa
PC-3 [19] = assay: Induction of apoptosis in human PC-3 cells assessed as downregulation of bcl-2 level at 50 to 200 nM incubated for 24 hrs by Western blot analysis; assay type: functional, cell-based; conditions: dose 50-200 nM
RM1 = assay: Antitumor immunity against mouse RM1 cells homografted in C57BL/6 mouse model assessed as increase in activation of tumor infiltrating lymphocytes in spleen at 5 to 10 mg/kg, iv administered every two days for 14 days by flow cytometry analysis; assay type: functional, organism-based; conditions: dose 5-10 mg/kg, time 14.0 day
PC-3 [20] = assay: Induction of apoptosis in human PC-3 cells assessed as viable cells at 50 nM measured after 24 hrs by annexin V-FITC and PI staining based flow cytometry analysis (reference value: 90.6%); assay type: functional; conditions: read-out: Activity
PC-3 [21] = assay: Induction of immunogenic cell death in human PC-3 cells assessed as increase in CRT translocation to cell surface at 200 nM measured after 12 hrs in presence of NAC by DAPI staining based analysis; assay type: functional
[22] = Toxicity in ICR mouse assessed as effect on kidney at 10 mg/kg, ip measured for 14 days by H and E staining based analysis; assay type: organism-based; conditions: in vivo, 336 h, time 14 day
PC-3 [23] = assay: Induction of cell cycle arrest in human PC-3 cells assessed as accumulation of cells at G2/M phase at 200 nM incubated for 24 hrs by flow cytometry analysis (reference value: 19.5%); assay type: functional
[24] = molecular target: Tubulin beta (Homo sapiens) (UniProt P68371+Q9H4B7+Q13509+P04350+Q3ZCM7+P07437+Q13885+Q9BVA1+Q9BUF5+A6NNZ2); assay: Binding affinity to beta-tubulin colchicine binding site in human PC-3 cells assessed as inhibition of EBI-beta-tubulin adduct band formation preincubated for 2 hrs followed by EBI addition measured after 1.5 hrs by EBI competition based Western blotting analysis; assay type: cell-based; conditions: dose 1-100 µM, time 3.5 hrs
[25] = Anticancer activity against mouse RM1 cells assessed as increase in mean fluorescence intensity at 400 nM measured after 24 hrs by flow cytometry analysis (reference value: 7.40+/-3.96 ); assay type: functional
PC-3 [26] = assay: Induction of cell cycle arrest in human PC-3 cells assessed as accumulation of cells at S phase at 50 nM incubated for 24 hrs by flow cytometry analysis (reference value: 31.3%); assay type: functional
PC-3 [27] = assay: Induction of apoptosis in human PC-3 cells assessed as increase in Cl-PARP level at 50 to 200 nM incubated for 24 hrs by Western blot analysis; assay type: functional, cell-based; conditions: dose 50-200 nM
PC-3 [28] = assay: Inhibition of V-ATPase activity in lysosomes of human PC-3 cells assessed as decrease in fluorescence at 50 to 200 nM incubated for 24 hrs by Lyso tracker red staining based inverted fluorescent microscopic analysis; assay type: subcellular; conditions: Lysosome, dose 50-200 nM
[29] = Toxicity in ICR mouse assessed as effect on lymphocytes at 10 mg/kg, ip measured for 14 days; assay type: organism-based; conditions: in vivo, 336 h, time 14 day
PC-3 [30] = assay: Induction of cell cycle arrest in human PC-3 cells assessed as reduction in cyclin B1 at 50 to 200 nM incubated for 24 hrs by DAPI staining based analysis; assay type: functional; conditions: dose 50-200 nM
PC-3 [31] = assay: Induction of apoptosis in human PC-3 cells assessed as necrotic cells at 200 nM measured after 24 hrs by annexin V-FITC and PI staining based flow cytometry analysis (reference value: 6.01%); assay type: functional

Q: What does the source list for `COc1cc(-c2nc(C(N)=O)cc3cc4c(cc23)OCCO4)cc(Br)c1OC`?
A: Activity (PC-3 [1]): Active; Activity (PC-3 [2]): Active; Activity [3]: 1.59%; Activity [4]: 2.27%; Activity [5]: Non-Toxic; Activity [6]: 8.03%; Activity [7]: Non-Toxic; Activity (PC-3 [8]): 10.3%; inhibition in vivo at 5 mg/kg [9]: 61.6%; Activity (PC-3 [10]): 19.4%; Activity [11]: Non-Toxic; inhibition in vivo at 10 mg/kg [12]: 70.2%; Activity (PC-3 [13]): Active; Activity [14]: Non-Toxic; inhibition in vivo at 5 mg/kg [15]: 54.6%; Activity (PC-3 [16]): Active; inhibition (PC-3 [17]): 60%; Kd [18]: 6.56 µM; Activity (PC-3 [19]): Active; Activity (RM1): Active; viability at 0.05 µM (PC-3 [20]): 87.6%; Activity (PC-3 [21]): inactive; Activity [22]: Non-Toxic; Activity (PC-3 [23]): 65.8%; Activity [24]: Dose-Dependent Effect; Flu intensity [25]: 151.3; Activity (PC-3 [26]): 29.3%; Activity (PC-3 [27]): Active; inhibition (PC-3 [28]): Active; Activity [29]: Non-Toxic; Activity (PC-3 [30]): Active; Activity (PC-3 [31]): 6.91%
